From BindingDB's records for doi:10.1006/jmbi.2000.3966 (Max-Planck-Institut Fuer Biochemie, 2000)

Legend:
Test in all cases: Determination of Inhibition Constants
Details in all cases: pH 8; 25 °C
[1] = target: Tissue-type plasminogen activator (Homo sapiens, UniProt P00750)
Procedure: (§1) The measurements were carried out on a microplate reader. Two concentrations of the substrate and five concentrations of the inhibitor were used in the assay. […] The Ki-values were calculated according to Dixon using a linear regression program. The Ki-values reported are means from at least three determinations.

[2] = target: Urokinase-type plasminogen activator (Homo sapiens, UniProt P00749)
Procedure: as §1

Serine protease 1 = target: T1, Serine protease 1 (Bos taurus, UniProt P00760)
T1 sequence (P00760 whole entry): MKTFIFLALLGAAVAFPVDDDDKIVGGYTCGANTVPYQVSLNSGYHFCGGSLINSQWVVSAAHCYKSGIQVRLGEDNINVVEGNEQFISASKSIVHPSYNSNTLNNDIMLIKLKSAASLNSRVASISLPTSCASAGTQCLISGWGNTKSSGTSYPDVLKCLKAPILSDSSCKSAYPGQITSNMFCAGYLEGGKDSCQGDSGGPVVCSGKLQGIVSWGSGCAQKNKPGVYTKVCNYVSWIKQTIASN
Procedure: as §1

Chain of Tissue-type plasminogen activator (P00750 whole entry): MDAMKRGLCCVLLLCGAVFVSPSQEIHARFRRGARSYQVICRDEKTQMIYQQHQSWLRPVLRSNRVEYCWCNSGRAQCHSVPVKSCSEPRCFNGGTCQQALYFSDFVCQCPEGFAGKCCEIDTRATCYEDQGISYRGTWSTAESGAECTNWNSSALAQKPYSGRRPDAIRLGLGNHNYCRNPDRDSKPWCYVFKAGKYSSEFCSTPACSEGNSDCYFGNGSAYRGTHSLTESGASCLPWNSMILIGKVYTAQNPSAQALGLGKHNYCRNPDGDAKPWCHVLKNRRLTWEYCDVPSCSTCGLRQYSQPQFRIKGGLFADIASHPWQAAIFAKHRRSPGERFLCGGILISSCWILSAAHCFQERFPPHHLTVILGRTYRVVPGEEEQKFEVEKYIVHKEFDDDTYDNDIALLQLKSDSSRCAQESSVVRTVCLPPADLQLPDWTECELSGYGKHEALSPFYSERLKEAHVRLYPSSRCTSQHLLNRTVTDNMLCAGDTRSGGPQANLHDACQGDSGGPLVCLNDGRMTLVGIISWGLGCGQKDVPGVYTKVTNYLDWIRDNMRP

SMILES | Ki [1] [µM] | Ki [2] [µM] | Ki (Serine protease 1) [µM]
CCOC(=O)N1CCN(C(=O)C(Cc2cccc(C(=N)N)c2)NS(=O)(=O)c2c(C(C)C)cc(C(C)C)cc2C(C)C)CC1 (stereo not given) | 4.9 | 0.41 | 0.037
N=C(N)NC(=O)c1nc(Cl)c(N)nc1N [3,5-diamino-N-carbamimidoyl-6-chloropyrazine-2-carboxamide] | > 1000 |  | 32
CC(C)c1cc(C(C)C)c(S(=O)(=O)N[C@@H](Cc2cccc(C(=N)N)c2)C(=O)N2CCN(C(=O)CCN)CC2)c(C(C)C)c1 [3-[3-(4-beta-alanylpiperazin-1-yl)-3-oxo-2-({[2,4,6-tris(1-methylethyl)phenyl]sulfonyl}amino)propyl]benzenecarboximidamide] | 8.7 |  | 0.6
NC(N)=Nc1ccc(CNC(=O)NC23CC4CC(CC(C4)C2)C3)cc1 [3-adamantan-1-yl-1-[(4-carbamimidamidophenyl)methyl]urea] | > 1000 | 2.4 | 46
